Data reported in patent US8287862B2, “Multidrug resistance-associated polypeptide” (Millennium Pharmaceuticals, Inc., priority 1997, dated 2012).

How the values were obtained:
[1] = tested on: MRP-β host cells; details: versus source or control cells; 16-24 hours in culture
Procedure: To establish this survival advantage, triplicate cultures of MRP-β host cells, control cells and source cells (e.g., MCF-7 human breast adenocarcinoma cells) are generated in 24-well cell culture plates. Once the cultures have attained at least 80% confluency, lethal or sub-lethal amounts of a cytotoxin (e.g., adriamycin, bisantrene) are added to each well. After a sufficient period of time for cytotoxic effects to be manifested (e.g., 16-24 hours in culture), culture media comprising the cytotoxic drug are aspirated or otherwise removed, and cells are stained with a vital dye such as Trypan blue. Which commercially available vital dye is used in this procedure is a matter of choice; thus, sulforodoamine B (see Powell et al. (1990), U.S. Pat. No. 5,550,149) could be used in lieu of Trypan blue. The number of cells that remain viable (e.g., capable of excluding the dye) are counted using a hemocytometer, flow cytometer or other appropriate device.

[2] = tested on: MCF-7 human breast adenocarcinoma cell line; details: adriamycin-selected MDR MCF-7 vs parental MCF-7; cited from earlier work

| Structure (SMILES) | survival of MRP-β expressing host cells on exposure to cytotoxin [1] | resistance of MDR derivative cell line relative to parental (wild-type) MCF-7 [2] |
| --- | --- | --- |
| C(=N\NC1=NCCN1)/c1c2ccccc2c(/C=N/NC2=NCCN2)c2ccccc12 [bisantrene] | surviving exposure to otherwise lethal amounts | – |
| COc1cccc2c1C(=O)c1c(O)c3c(c(O)c1C2=O)C[C@@](O)(C(=O)CO)C[C@@H]3O[C@H]1C[C@H](N)[C@H](O)[C@H](C)O1 [adriamycin] | – | 192 fold |
